# Test results published in patent US8937078B2, “Quinazolinones as prolyl hydroxylase inhibitors” (Janssen Pharmaceutica NV, priority 2009, dated 2015).
# Structures can show the parent of a compound that is named as a salt.
# Columns and labels:
# [1] = test system: Hep-3B cells; experiment: Cellular assay: erythropoietin secretion in Hep-3B cells; format: cell-based, human; conditions: 100 μM compound, 24 hours, percent of EPO secretion relative to assay control compound 7-[(4-Chloro-phenyl)-(5-methyl-isoxazol-3-ylamino)-methyl]-quinolin-8-ol; for Emax at 100 µM: Homo sapiens, Hep3B, read-out: Cellular % EPO Stimulation
# Procedure, shortened: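 Hep-3B cells in DMEM with 10% FBS, treated 24 h after plating with compounds at 100 μM final for a further 24 h. Secreted EPO in supernatant measured by MSD electrochemiluminescence sandwich immunoassay with anti-EPO detection antibody.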
# [2] = molecular target: T1, human PHD2 (PHD2181-417) (Homo sapiens, UniProt Q9GZT9); experiment: PHD enzymatic assay ([14C]-succinic acid production); format: biochemical; conditions: PHD2181-417, HIF-1α peptide 10 μM, average of results; for IC50: read-out: Enzyme pIC50 (converted)
# T1 construct: Smt (SUMO) tag (cleaved yes); made in house; host or cells: E. coli BL21 (pBAD vector)
# T1 sequence (Q9GZT9 181-417): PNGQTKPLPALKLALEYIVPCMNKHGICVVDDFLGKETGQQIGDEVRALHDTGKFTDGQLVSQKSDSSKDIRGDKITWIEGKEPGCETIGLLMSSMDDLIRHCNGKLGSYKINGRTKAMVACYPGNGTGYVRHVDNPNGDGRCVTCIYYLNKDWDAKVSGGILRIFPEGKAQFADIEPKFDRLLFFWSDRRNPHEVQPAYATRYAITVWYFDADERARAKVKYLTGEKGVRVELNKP
# Procedure, shortened: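 Activity measured as [14C]-succinic acid formed from [5-14C]-2-oxoglutarate over 10 minutes, with peptide substrate at 10 μM, in Tris-HCl pH 7.5 buffer containing catalase, DTT and ascorbate. Unreacted oxoglutarate removed by DNP derivatisation; supernatant beta-counted.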
SMILES,IC50 [2],Emax at 100 µM [1],Cellular % EPO Stimulation [1],Enzyme pIC50 [2]
"CC(C)(C)c1ccc(S(=O)(=O)c2cc3c(=O)[nH]c(-n4cc(C(=O)O)cn4)nc3cc2Cl)cc1 [Example 72, 1-[6-(4-tert-Butyl-benzenesulfonyl)-7-chloro-4-oxo-3,4-dihydro-quinazolin-2-yl]-1H-pyrazole-4-carboxylic acid]",50.1 nM,22%,–,–
"Cc1cc2nc(-n3cc(C(=O)O)cn3)[nH]c(=O)c2cc1Oc1cccc(C(F)(F)F)c1 [Example 93, 1-[7-methyl-4-oxo-6-(3-trifluoromethyl-phenoxy)-3,4-dihydro-quinazolin-2-yl]-1H-pyrazole-4-carboxylic acid]",20 nM,153%,–,–
"NC(CO)(CO)CO.O=C(O)c1cnn(-c2nc3cc(C4CCOCC4)ccc3c(=O)[nH]2)c1 [Example 67, 1-[4-Oxo-7-(tetrahydro-pyran-4-yl)-3,4-dihydro-quinazolin-2-yl]-1H-pyrazole-4-carboxylic acid tris(hydroxymethyl)aminomethane salt]",–,–,18%,7.8
"O=C(O)c1cnn(-c2nc3cc(F)c(F)cc3c(=O)[nH]2)c1 [Example 5, 1-(6,7-Difluoro-4-oxo-3,4-dihydro-quinazolin-2-yl)-1H-pyrazole-4-carboxylic acid, trifluoroacetate salt]",20 nM,21%,–,–
"Cc1cccc(C)c1Oc1ccc2nc(-n3cc(C(=O)O)cn3)[nH]c(=O)c2c1 [Example 42, 1-[6-(2,6-Dimethyl-phenoxy)-4-oxo-3,4-dihydro-quinazolin-2-yl]-1H-pyrazole-4-carboxylic acid]",25.1 nM,117%,–,–
"O=C(O)c1cnn(-c2nc3ccc(-c4ccc5c(c4)OCO5)cc3c(=O)[nH]2)c1 [Example 207, 1-(6-Benzo[1,3]dioxol-5-yl-4-oxo-3,4-dihydro-quinazolin-2-yl)-1H-pyrazole-4-carboxylic acid]",25.1 nM,84%,–,–
"COc1cc2nc(-n3cc(C(=O)O)cn3)[nH]c(=O)c2cc1OC [Example 17, 1-(6,7-Dimethoxy-4-oxo-3,4-dihydro-quinazolin-2-yl)-1H-pyrazole-4-carboxylic acid]",200 nM,33%,–,–
"CC(=O)Nc1ccc2nc(-n3cc(C(=O)O)cn3)[nH]c(=O)c2c1 [Example 167, 1-(6-Acetylamino-4-oxo-3,4-dihydro-quinazolin-2-yl)-1H-pyrazole-4-carboxylic acid]",31.6 nM,26%,–,–
"O=C(O)c1cnn(-c2nc3ccc(Oc4ccc5ccccc5c4)cc3c(=O)[nH]2)c1 [Example 43, 1-[6-(Naphthalen-2-yloxy)-4-oxo-3,4-dihydro-quinazolin-2-yl]-1H-pyrazole-4-carboxylic acid]",25.1 nM,76%,–,–
"O=C(O)c1cnn(-c2nc3ccc(Oc4cccc5c4CCCC5)cc3c(=O)[nH]2)c1 [Example 44, 1-[4-Oxo-6-(5,6,7,8-tetrahydro-naphthalen-1-yloxy)-3,4-dihydro-quinazolin-2-yl]-1H-pyrazole-4-carboxylic acid]",25.1 nM,52%,–,–
"O=C(O)c1cnn(-c2nc3cc(Cl)c(Oc4ccc5ccccc5c4)cc3c(=O)[nH]2)c1 [Example 54, 1-[7-Chloro-6-(naphthalen-2-yloxy)-4-oxo-3,4-dihydro-quinazolin-2-yl]-1H-pyrazole-4-carboxylic acid]",39.8 nM,90%,–,–
"O=C(O)c1cnn(-c2nc3cc(Cl)c(N4CCc5ccccc5C4)cc3c(=O)[nH]2)c1 [Example 84, 1-[7-Chloro-6-(3,4-dihydro-1H-isoquinolin-2-yl)-4-oxo-3,4-dihydro-quinazolin-2-yl]-1H-pyrazole-4-carboxylic acid]",20 nM,101%,–,–
"O=C(O)c1cnn(-c2nc3ccc(SC(F)(F)F)cc3c(=O)[nH]2)c1 [Example 156, 1-(4-Oxo-6-trifluoromethylsulfanyl-3,4-dihydro-quinazolin-2-yl)-1H-pyrazole-4-carboxylic acid]",31.6 nM,19%,–,–
"COc1cccc2c(=O)[nH]c(-n3cc(C(=O)O)cn3)nc12 [Example 7, 1-(8-Methoxy-4-oxo-3,4-dihydro-quinazolin-2-yl)-1H-pyrazole-4-carboxylic acid]",158 nM,25%,–,–
"COc1ccc(Oc2ccc3nc(-n4cc(C(=O)O)cn4)[nH]c(=O)c3c2)cc1 [Example 41, 1-[6-(4-Methoxy-phenoxy)-4-oxo-3,4-dihydro-quinazolin-2-yl]-1H-pyrazole-4-carboxylic acid]",20 nM,112%,–,–
"O=C(O)c1cnn(-c2nc3ccc(Oc4cccc5ccccc45)cc3c(=O)[nH]2)c1 [Example 29, 1-[6-(naphthalen-1-yloxy)-4-oxo-3,4-dihydro-quinazolin-2-yl]-1H-pyrazole-4-carboxylic acid]",25.1 nM,124%,–,–
"CC(C)(C)c1ccc2nc(-n3cc(C(=O)O)cn3)[nH]c(=O)c2c1 [Example 19, 1-(6-tert-Butyl-4-oxo-3,4-dihydro-quinazolin-2-yl)-1H-pyrazole-4-carboxylic acid]",39.8 nM,45%,–,–
"O=C(O)c1cnn(-c2nc3cc(S(=O)(=O)c4ccccc4)ccc3c(=O)[nH]2)c1 [Example 81, 1-(7-Benzenesulfonyl-4-oxo-3,4-dihydro-quinazolin-2-yl)-1H-pyrazole-4-carboxylic acid]",79.4 nM,26%,–,–
"O=C(O)c1cnn(-c2nc3ccc(Oc4cccc(-c5ccccc5)c4)cc3c(=O)[nH]2)c1 [Example 99, 1-[6-(biphenyl-3-yloxy)-4-oxo-3,4-dihydro-quinazolin-2-yl]-1H-pyrazole-4-carboxylic acid]",25.1 nM,81%,–,–
"Cc1cc2nc(-n3cc(C(=O)O)cn3)[nH]c(=O)c2cc1Oc1c(C)cccc1C [Example 27, 1-[6-(2,6-Dimethyl-phenoxy)-7-methyl-4-oxo-3,4-dihydro-quinazolin-2-yl]-1H-pyrazole-4-carboxylic acid]",20 nM,10%,–,–
"Cc1ccc(-c2ccc3nc(-n4cc(C(=O)O)cn4)[nH]c(=O)c3c2)cc1 [Example 191, 1-(4-Oxo-6-p-tolyl-3,4-dihydro-quinazolin-2-yl)-1H-pyrazole-4-carboxylic acid]",20 nM,31%,–,–
"O=C(O)c1cnn(-c2nc3cc(Sc4ccc(Cl)cc4)ccc3c(=O)[nH]2)c1 [Example 79, 1-[7-(4-Chloro-phenylsulfanyl)-4-oxo-3,4-dihydro-quinazolin-2-yl]-1H-pyrazole-4-carboxylic acid]",39.8 nM,6%,–,–

# Now from value to compound, other results behind:
IC50 [2],SMILES,Emax at 100 µM [1],Cellular % EPO Stimulation [1],Enzyme pIC50 [2]
35.5 nM,"O=C(O)c1cnn(-c2nc3cc4c(cc3c(=O)[nH]2)CCC4)c1 [Example 140, 1-(4-Oxo-4,6,7,8-tetrahydro-3H-cyclopenta[g]quinazolin-2-yl)-1H-pyrazole-4-carboxylic acid]",62%,–,–
63.1 nM,"Nc1ccc2nc(-n3cc(C(=O)O)cn3)[nH]c(=O)c2c1 [Example 180, 1-[6-amino-4-oxo-3,4-dihydro-quinazolin-2-yl]-1H-pyrazole-4-carboxylic acid]",8%,–,–
31.6 nM,"O=C(O)c1cnn(-c2nc3cc(Sc4ccccc4Cl)ccc3c(=O)[nH]2)c1 [Example 80, 1-[7-(2-Chloro-phenylsulfanyl)-4-oxo-3,4-dihydro-quinazolin-2-yl]-1H-pyrazole-4-carboxylic acid]",5%,–,–
20 nM,"O=C(O)c1cnn(-c2nc3cc(F)c(Oc4cc(Cl)ccc4Cl)cc3c(=O)[nH]2)c1 [Example 87, 1-[6-(2,5-dichloro-phenoxy)-7-fluoro-4-oxo-3,4-dihydro-quinazolin-2-yl]-1H-pyrazole-4-carboxylic acid]",84%,–,–
25.1 nM,"O=C(O)c1cnn(-c2nc3ccc(Oc4cccc(C(F)(F)F)c4)cc3c(=O)[nH]2)c1 [Example 100, 1-[4-oxo-6-(3-trifluoromethyl-phenoxy)-3,4-dihydro-quinazolin-2-yl]-1H-pyrazole-4-carboxylic acid]",55%,–,–
25.1 nM,"C=C(Cl)c1ccc2nc(-n3cc(C(=O)O)cn3)[nH]c(=O)c2c1 [Example 77, 1-[6-(1-Chloro-vinyl)-4-oxo-3,4-dihydro-quinazolin-2-yl]-1H-pyrazole-4-carboxylic acid]",27%,–,–
63.1 nM,"CN1CCN(c2ccc3nc(-n4cc(C(=O)O)cn4)[nH]c(=O)c3c2)CC1 [Example 103, 1-[6-(4-methyl-piperazin-1-yl)-4-oxo-3,4-dihydro-quinazolin-2-yl]-1H-pyrazole-4-carboxylic acid]",30%,–,–
25.1 nM,"O=C(O)c1cnn(-c2nc3ccc(C4CC4)cc3c(=O)[nH]2)c1 [Example 109, 1-(6-Cyclopropyl-4-oxo-3,4-dihydro-quinazolin-2-yl)-1H-pyrazole-4-carboxylic acid]",100%,–,–
25.1 nM,"O=C(O)c1cnn(-c2nc3ccc(I)cc3c(=O)[nH]2)c1 [Example 12, 1-(6-Iodo-4-oxo-3,4-dihydro-quinazolin-2-yl)-1H-pyrazole-4-carboxylic acid]",50%,–,–
158 nM,"CCOc1ccc2c(=O)[nH]c(-n3cc(C(=O)O)cn3)nc2c1 [Example 152, 1-(7-Ethoxy-4-oxo-3,4-dihydro-quinazolin-2-yl)-1H-pyrazole-4-carboxylic acid]",38%,–,–
